In ChEMBL document CHEMBL2069231, “Combining pharmacophore, docking and substructure search approaches to identify and optimize novel B-RafV600E inhibitors” (Bioorg Med Chem Lett, 2012):

tested on: Serine/threonine-protein kinase B-raf (Homo sapiens), P15056 [V600E]; assay: Inhibition of BRAF V600E mutant at 1 uM by ELISA
Sequence (P15056 whole entry V600E): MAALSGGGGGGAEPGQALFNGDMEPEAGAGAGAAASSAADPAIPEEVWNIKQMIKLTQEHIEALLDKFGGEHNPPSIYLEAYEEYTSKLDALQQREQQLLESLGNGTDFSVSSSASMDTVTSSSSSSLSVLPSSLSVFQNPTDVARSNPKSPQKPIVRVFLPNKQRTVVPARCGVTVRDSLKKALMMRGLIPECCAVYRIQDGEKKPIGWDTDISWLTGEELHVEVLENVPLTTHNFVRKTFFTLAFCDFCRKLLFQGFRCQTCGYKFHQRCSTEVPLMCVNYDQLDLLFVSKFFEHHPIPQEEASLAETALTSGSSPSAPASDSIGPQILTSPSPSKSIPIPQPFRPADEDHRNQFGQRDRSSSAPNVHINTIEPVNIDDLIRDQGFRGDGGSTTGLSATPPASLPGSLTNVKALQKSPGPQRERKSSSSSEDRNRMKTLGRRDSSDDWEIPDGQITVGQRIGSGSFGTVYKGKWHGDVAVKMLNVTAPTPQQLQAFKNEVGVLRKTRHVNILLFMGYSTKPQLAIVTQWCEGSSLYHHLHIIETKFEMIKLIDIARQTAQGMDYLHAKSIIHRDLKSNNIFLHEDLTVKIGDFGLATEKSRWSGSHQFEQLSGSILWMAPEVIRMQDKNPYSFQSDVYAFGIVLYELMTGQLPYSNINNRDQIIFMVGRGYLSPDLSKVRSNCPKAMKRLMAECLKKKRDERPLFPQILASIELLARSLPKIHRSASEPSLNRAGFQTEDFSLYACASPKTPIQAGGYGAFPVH

| SMILES | inhibition [%] |
| --- | --- |
| Cc1ccc(N2C(=O)/C(=C\c3ccc(-c4cccc(C(=O)O)c4)o3)C(=O)NC2=S)cc1 | 33 |
| Cc1ccc([N+](=O)[O-])cc1-c1ccc(C=C2C(=O)NC(=S)NC2=O)o1 | 51 |
| COc1cc(C=C2C(=O)NC(=S)NC2=O)ccc1OC(F)F | 14 |
| CS(=O)(=O)N(CCC#N)Cc1ccc(/C=C2/C(=O)NC(=S)N(c3ccc(Cl)c(Cl)c3)C2=O)o1 | 60 |
| COC(=O)c1ccccc1-c1ccc(/C=C2/C(=O)NC(=S)N(c3ccc(C)cc3)C2=O)o1 | 37 |
| O=C1NC(=S)N(c2ccc(Br)cc2)C(=O)/C1=C\c1ccc(-c2ccccc2C(=O)O)o1 | 32 |
| Cc1ccc(N2C(=O)/C(=C\c3ccc(-c4ccc(C(=O)O)c(Cl)c4)o3)C(=O)NC2=S)cc1 | 28 |
| CCN(C)c1ccc(-c2ccc(C=C3C(=O)NC(=S)NC3=O)cc2)cc1 | < 5 |
| CCOc1ccc(C=C2C(=O)NC(=S)NC2=O)cc1Cl | 12 |
| Cc1c(Cl)cccc1N1C(=O)/C(=C\c2ccc(-c3ccc(C(=O)O)cc3)o2)C(=O)NC1=S | 38 |
| CCOc1ccc(N2C(=O)/C(=C\c3ccc(CN(CCC#N)S(C)(=O)=O)o3)C(=O)NC2=S)cc1 | 43 |
| Cc1ccc(N2C(=O)/C(=C\c3ccc(-c4ccc(Cl)c(C(=O)O)c4)o3)C(=O)NC2=S)cc1 | 5 |
| CC(C)COC(=O)c1ccc(-c2ccc(C=C3C(=O)NC(=S)NC3=O)o2)cc1 | 31 |
| Cc1cccc(C)c1OCCOc1ccc(C=C2C(=O)NC(=S)NC2=O)cc1 | 42 |
| O=C1NC(=S)N(c2ccc(Br)cc2)C(=O)/C1=C\c1ccc(-c2ccc(C(=O)O)cc2)o1 | 38 |
| Cc1cccc(N2C(=O)/C(=C\c3ccc(CN(CCC#N)S(C)(=O)=O)o3)C(=O)NC2=S)c1 | 55 |
| CCOc1cc(C=C2C(=O)NC(=S)NC2=O)ccc1O | 15 |
| Cc1ccc(N2C(=O)/C(=C\c3ccc(-c4ccc(C(=O)O)cc4)o3)C(=O)NC2=S)cc1 | 35 |
| O=C1NC(=S)NC(=O)C1=Cc1cccc(OC(=O)c2cccc(F)c2)c1 | 17 |
| CCOc1cc(C=C2C(=O)NC(=S)NC2=O)ccc1OCC(=O)Nc1cccc(C)c1 | 23 |
| Cc1ccc(N2C(=O)/C(=C\c3ccc(-c4ccc(F)cc4)o3)C(=O)NC2=S)cc1 | 13 |
| COc1cc(C=C2C(=O)NC(=S)NC2=O)ccc1OCCC(C)C | 21 |
| O=C1NC(=S)NC(=O)C1=Cc1ccc(-c2ccc([N+](=O)[O-])cc2)o1 | 59 |

| SMILES | inhibition [%] |
| --- | --- |
| O=C1NC(=S)NC(=O)C1=Cc1ccc(Oc2ccc([N+](=O)[O-])cn2)cc1 | < 5 |
| COc1cc(C=C2C(=O)NC(=S)NC2=O)ccc1OCCO | < 5 |
| CCCS(=O)(=O)Nc1ccc(F)c(C(=O)c2c[nH]c3ncc(-c4ccc(Cl)cc4)cc23)c1F | 72 |
| O=C1NC(=S)NC(=O)C1=Cc1ccc(-c2ccccc2[N+](=O)[O-])o1 | 55 |
| O=C1NC(=S)NC(=O)C1=Cc1ccc(-c2cccc([N+](=O)[O-])c2)o1 | 48 |
| Cc1ccc(N2C(=O)/C(=C\c3ccc(CN(CCC#N)S(C)(=O)=O)o3)C(=O)NC2=S)cc1 | 48 |
| N#Cc1ccccc1-c1ccc(C=C2C(=O)NC(=S)NC2=O)o1 | 60 |
| COc1ccc(C=C2C(=O)NC(=S)NC2=O)cc1OCc1ccc(Br)cc1 | 12 |
| O=C1NC(=S)N(c2ccc(Br)cc2)C(=O)/C1=C\c1ccc(-c2cccc(C(=O)O)c2)o1 | 43 |
| CS(=O)(=O)N(CCC#N)Cc1ccc(/C=C2/C(=O)NC(=S)N(c3ccc(Br)cc3)C2=O)o1 | 88 |
| O=C1NC(=S)N(c2cccc(Cl)c2Cl)C(=O)/C1=C\c1ccc(-c2ccc(C(=O)O)cc2)o1 | 46 |
| CCOC(=O)c1ccccc1-c1ccc(/C=C2/C(=O)NC(=S)N(c3ccc(C)cc3)C2=O)o1 | 56 |
| COC(=O)c1cc(Br)ccc1-c1ccc(C=C2C(=O)NC(=S)NC2=O)o1 | 61 |
| COc1cc(C=C2C(=O)NC(=S)NC2=O)ccc1OC(=O)c1cccc(F)c1 | < 5 |
| O=C1NC(=S)NC(=O)C1=Cc1ccc(OCC(=O)N2CCCC2)cc1 | 9 |
| COc1cccc(N2C(=O)/C(=C\c3ccc(CN(CCC#N)S(C)(=O)=O)o3)C(=O)NC2=S)c1 | 32 |
| O=C1NC(=S)NC(=O)C1=Cc1ccc(OCc2ccccc2)c(Cl)c1 | 31 |
| COc1ccc(C=C2C(=O)NC(=S)NC2=O)cc1OC(=O)c1ccc(C)cc1 | < 5 |
| Cc1ccc(Cl)cc1-c1ccc(C=C2C(=O)NC(=S)NC2=O)o1 | 54 |
| COc1ccc(C=C2C(=O)NC(=S)NC2=O)cc1OC(=O)c1ccccc1 | 46 |
| Cc1ccc(N2C(=O)/C(=C\c3ccc(CN(CCC#N)S(C)(=O)=O)o3)C(=O)NC2=S)cc1Cl | 68 |
| COc1ccc(C=C2C(=O)NC(=S)NC2=O)cc1OC(=O)c1cccc(Cl)c1 | 9 |
| O=C1NC(=S)N(c2ccc(Br)cc2)C(=O)/C1=C\c1ccc(-c2ccc(C(=O)O)c(Cl)c2)o1 | 28 |

molecular target: Serine/threonine-protein kinase B-raf (Homo sapiens, UniProt P15056, V600E); assay: Inhibition of BRAF V600E mutant by ELISA
Sequence (P15056 2-766 V600E limits assumed): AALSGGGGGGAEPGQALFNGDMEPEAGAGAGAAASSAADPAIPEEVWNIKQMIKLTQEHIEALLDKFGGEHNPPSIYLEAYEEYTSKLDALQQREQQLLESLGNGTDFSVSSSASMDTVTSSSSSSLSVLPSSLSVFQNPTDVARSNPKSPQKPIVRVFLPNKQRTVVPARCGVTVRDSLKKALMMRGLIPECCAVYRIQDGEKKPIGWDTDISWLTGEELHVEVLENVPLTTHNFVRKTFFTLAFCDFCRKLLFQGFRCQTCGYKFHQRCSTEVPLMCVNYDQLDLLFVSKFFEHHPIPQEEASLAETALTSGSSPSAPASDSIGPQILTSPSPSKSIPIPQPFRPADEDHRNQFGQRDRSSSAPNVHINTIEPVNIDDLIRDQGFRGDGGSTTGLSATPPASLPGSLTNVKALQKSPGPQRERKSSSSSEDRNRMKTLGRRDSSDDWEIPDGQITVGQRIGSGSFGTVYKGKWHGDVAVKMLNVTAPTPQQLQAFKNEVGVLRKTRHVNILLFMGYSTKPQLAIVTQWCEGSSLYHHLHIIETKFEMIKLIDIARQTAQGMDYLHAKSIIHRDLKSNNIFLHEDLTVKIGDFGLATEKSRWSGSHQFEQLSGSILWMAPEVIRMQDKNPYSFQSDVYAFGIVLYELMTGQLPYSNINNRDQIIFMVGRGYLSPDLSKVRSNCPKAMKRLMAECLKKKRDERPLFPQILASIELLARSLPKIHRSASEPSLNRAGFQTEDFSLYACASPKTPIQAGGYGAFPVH

| SMILES | IC50 [nM] |
| --- | --- |
| Cc1ccc(N2C(=O)/C(=C\c3ccc(-c4cccc(C(=O)O)c4)o3)C(=O)NC2=S)cc1 | 4020 |
| CS(=O)(=O)N(CCC#N)Cc1ccc(/C=C2/C(=O)NC(=S)N(c3ccc(Cl)c(Cl)c3)C2=O)o1 | 820 |
| COC(=O)c1ccccc1-c1ccc(/C=C2/C(=O)NC(=S)N(c3ccc(C)cc3)C2=O)o1 | 1650 |
| O=C1NC(=S)N(c2ccc(Br)cc2)C(=O)/C1=C\c1ccc(-c2ccccc2C(=O)O)o1 | 3450 |
| Cc1ccc(N2C(=O)/C(=C\c3ccc(-c4ccc(C(=O)O)c(Cl)c4)o3)C(=O)NC2=S)cc1 | 3240 |
| Cc1c(Cl)cccc1N1C(=O)/C(=C\c2ccc(-c3ccc(C(=O)O)cc3)o2)C(=O)NC1=S | 2490 |
| CCOc1ccc(N2C(=O)/C(=C\c3ccc(CN(CCC#N)S(C)(=O)=O)o3)C(=O)NC2=S)cc1 | 1140 |
| O=C1NC(=S)N(c2ccc(Br)cc2)C(=O)/C1=C\c1ccc(-c2ccc(C(=O)O)cc2)o1 | 2230 |
| Cc1cccc(N2C(=O)/C(=C\c3ccc(CN(CCC#N)S(C)(=O)=O)o3)C(=O)NC2=S)c1 | 500 |
| Cc1ccc(N2C(=O)/C(=C\c3ccc(-c4ccc(C(=O)O)cc4)o3)C(=O)NC2=S)cc1 | 1600 |
| Cc1ccc(N2C(=O)/C(=C\c3ccc(-c4ccc(F)cc4)o3)C(=O)NC2=S)cc1 | 4110 |
| O=C1NC(=S)NC(=O)C1=Cc1ccc(-c2ccc([N+](=O)[O-])cc2)o1 | 730 |
| O=C1NC(=S)NC(=O)C1=Cc1ccc(-c2ccccc2[N+](=O)[O-])o1 | 670 |
| O=C1NC(=S)NC(=O)C1=Cc1ccc(-c2cccc([N+](=O)[O-])c2)o1 | 830 |
| Cc1ccc(N2C(=O)/C(=C\c3ccc(CN(CCC#N)S(C)(=O)=O)o3)C(=O)NC2=S)cc1 | 970 |
| N#Cc1ccccc1-c1ccc(C=C2C(=O)NC(=S)NC2=O)o1 | 740 |
| O=C1NC(=S)N(c2ccc(Br)cc2)C(=O)/C1=C\c1ccc(-c2cccc(C(=O)O)c2)o1 | 1800 |
| CS(=O)(=O)N(CCC#N)Cc1ccc(/C=C2/C(=O)NC(=S)N(c3ccc(Br)cc3)C2=O)o1 | 440 |
| O=C1NC(=S)N(c2cccc(Cl)c2Cl)C(=O)/C1=C\c1ccc(-c2ccc(C(=O)O)cc2)o1 | 1540 |
| CCOC(=O)c1ccccc1-c1ccc(/C=C2/C(=O)NC(=S)N(c3ccc(C)cc3)C2=O)o1 | 1020 |
| COc1cccc(N2C(=O)/C(=C\c3ccc(CN(CCC#N)S(C)(=O)=O)o3)C(=O)NC2=S)c1 | 1840 |
| COc1ccc(C=C2C(=O)NC(=S)NC2=O)cc1OC(=O)c1ccccc1 | 4010 |
| Cc1ccc(N2C(=O)/C(=C\c3ccc(CN(CCC#N)S(C)(=O)=O)o3)C(=O)NC2=S)cc1Cl | 310 |
| O=C1NC(=S)N(c2ccc(Br)cc2)C(=O)/C1=C\c1ccc(-c2ccc(C(=O)O)c(Cl)c2)o1 | 4750 |

tested on: Serine/threonine-protein kinase B-raf (Homo sapiens), P15056 [V600E]; assay: Inhibition of BRAF V600E mutant at 10 uM by ELISA

| SMILES | inhibition [%] |
| --- | --- |
| Cc1ccc(N2C(=O)/C(=C\c3ccc(-c4cccc(C(=O)O)c4)o3)C(=O)NC2=S)cc1 | 98 |
| Cc1ccc([N+](=O)[O-])cc1-c1ccc(C=C2C(=O)NC(=S)NC2=O)o1 | 57 |
| COc1cc(C=C2C(=O)NC(=S)NC2=O)ccc1OC(F)F | 17 |
| CS(=O)(=O)N(CCC#N)Cc1ccc(/C=C2/C(=O)NC(=S)N(c3ccc(Cl)c(Cl)c3)C2=O)o1 | 97 |
| COC(=O)c1ccccc1-c1ccc(/C=C2/C(=O)NC(=S)N(c3ccc(C)cc3)C2=O)o1 | 88 |
| O=C1NC(=S)N(c2ccc(Br)cc2)C(=O)/C1=C\c1ccc(-c2ccccc2C(=O)O)o1 | 100 |
| Cc1ccc(N2C(=O)/C(=C\c3ccc(-c4ccc(C(=O)O)c(Cl)c4)o3)C(=O)NC2=S)cc1 | 99 |
| CCN(C)c1ccc(-c2ccc(C=C3C(=O)NC(=S)NC3=O)cc2)cc1 | < 5 |
| CCOc1ccc(C=C2C(=O)NC(=S)NC2=O)cc1Cl | 71 |
| Cc1c(Cl)cccc1N1C(=O)/C(=C\c2ccc(-c3ccc(C(=O)O)cc3)o2)C(=O)NC1=S | 100 |
| CCOc1ccc(N2C(=O)/C(=C\c3ccc(CN(CCC#N)S(C)(=O)=O)o3)C(=O)NC2=S)cc1 | 91 |
| Cc1ccc(N2C(=O)/C(=C\c3ccc(-c4ccc(Cl)c(C(=O)O)c4)o3)C(=O)NC2=S)cc1 | 71 |
| CC(C)COC(=O)c1ccc(-c2ccc(C=C3C(=O)NC(=S)NC3=O)o2)cc1 | 37 |
| Cc1cccc(C)c1OCCOc1ccc(C=C2C(=O)NC(=S)NC2=O)cc1 | 95 |
| O=C1NC(=S)N(c2ccc(Br)cc2)C(=O)/C1=C\c1ccc(-c2ccc(C(=O)O)cc2)o1 | 97 |
| Cc1cccc(N2C(=O)/C(=C\c3ccc(CN(CCC#N)S(C)(=O)=O)o3)C(=O)NC2=S)c1 | 84 |
| CCOc1cc(C=C2C(=O)NC(=S)NC2=O)ccc1O | 68 |
| Cc1ccc(N2C(=O)/C(=C\c3ccc(-c4ccc(C(=O)O)cc4)o3)C(=O)NC2=S)cc1 | 97 |
| O=C1NC(=S)NC(=O)C1=Cc1cccc(OC(=O)c2cccc(F)c2)c1 | 19 |
| CCOc1cc(C=C2C(=O)NC(=S)NC2=O)ccc1OCC(=O)Nc1cccc(C)c1 | 81 |
| Cc1ccc(N2C(=O)/C(=C\c3ccc(-c4ccc(F)cc4)o3)C(=O)NC2=S)cc1 | 74 |
| COc1cc(C=C2C(=O)NC(=S)NC2=O)ccc1OCCC(C)C | 81 |
| O=C1NC(=S)NC(=O)C1=Cc1ccc(-c2ccc([N+](=O)[O-])cc2)o1 | 91 |

| SMILES | inhibition [%] |
| --- | --- |
| O=C1NC(=S)NC(=O)C1=Cc1ccc(Oc2ccc([N+](=O)[O-])cn2)cc1 | 41 |
| COc1cc(C=C2C(=O)NC(=S)NC2=O)ccc1OCCO | 34 |
| CCCS(=O)(=O)Nc1ccc(F)c(C(=O)c2c[nH]c3ncc(-c4ccc(Cl)cc4)cc23)c1F | 92 |
| O=C1NC(=S)NC(=O)C1=Cc1ccc(-c2ccccc2[N+](=O)[O-])o1 | 93 |
| O=C1NC(=S)NC(=O)C1=Cc1ccc(-c2cccc([N+](=O)[O-])c2)o1 | 85 |
| Cc1ccc(N2C(=O)/C(=C\c3ccc(CN(CCC#N)S(C)(=O)=O)o3)C(=O)NC2=S)cc1 | 99 |
| N#Cc1ccccc1-c1ccc(C=C2C(=O)NC(=S)NC2=O)o1 | 93 |
| COc1ccc(C=C2C(=O)NC(=S)NC2=O)cc1OCc1ccc(Br)cc1 | 87 |
| O=C1NC(=S)N(c2ccc(Br)cc2)C(=O)/C1=C\c1ccc(-c2cccc(C(=O)O)c2)o1 | 100 |
| CS(=O)(=O)N(CCC#N)Cc1ccc(/C=C2/C(=O)NC(=S)N(c3ccc(Br)cc3)C2=O)o1 | 96 |
| O=C1NC(=S)N(c2cccc(Cl)c2Cl)C(=O)/C1=C\c1ccc(-c2ccc(C(=O)O)cc2)o1 | 100 |
| CCOC(=O)c1ccccc1-c1ccc(/C=C2/C(=O)NC(=S)N(c3ccc(C)cc3)C2=O)o1 | 88 |
| COC(=O)c1cc(Br)ccc1-c1ccc(C=C2C(=O)NC(=S)NC2=O)o1 | 86 |
| COc1cc(C=C2C(=O)NC(=S)NC2=O)ccc1OC(=O)c1cccc(F)c1 | 28 |
| O=C1NC(=S)NC(=O)C1=Cc1ccc(OCC(=O)N2CCCC2)cc1 | 52 |
| COc1cccc(N2C(=O)/C(=C\c3ccc(CN(CCC#N)S(C)(=O)=O)o3)C(=O)NC2=S)c1 | 74 |
| O=C1NC(=S)NC(=O)C1=Cc1ccc(OCc2ccccc2)c(Cl)c1 | 91 |
| COc1ccc(C=C2C(=O)NC(=S)NC2=O)cc1OC(=O)c1ccc(C)cc1 | 38 |
| Cc1ccc(Cl)cc1-c1ccc(C=C2C(=O)NC(=S)NC2=O)o1 | 75 |
| COc1ccc(C=C2C(=O)NC(=S)NC2=O)cc1OC(=O)c1ccccc1 | 77 |
| Cc1ccc(N2C(=O)/C(=C\c3ccc(CN(CCC#N)S(C)(=O)=O)o3)C(=O)NC2=S)cc1Cl | 99 |
| COc1ccc(C=C2C(=O)NC(=S)NC2=O)cc1OC(=O)c1cccc(Cl)c1 | 88 |
| O=C1NC(=S)N(c2ccc(Br)cc2)C(=O)/C1=C\c1ccc(-c2ccc(C(=O)O)c(Cl)c2)o1 | 89 |
